Measurements: patent publication US9889130B2, “Substituted 3-benzofuranyl-indol-2-one-3-acetamididopiperazine derivatives, preparation thereof, and therapeutic use thereof” (SANOFI, priority 2009, dated 2018)

How the values were obtained:
ghrelin receptor = biological target: T1, ghrelin receptor (Rattus norvegicus, UniProt O08725); test: Ghrelin antagonism in electrically stimulated rat gastric fundus strips (called In Vivo Test); conditions: isolated rat gastric fundus strips, electric-field stimulation, ghrelin 0.1 nM-1 μM concentration-response curves, antagonist contact time 30 minutes; read-out: IC50, antagonist activity towards the ghrelin receptor
T1 construct: Strips of approximately 1 cm (5 mm wide) of gastric fundus were cut out along the longitudinal axis; from tissue; host or cells: rat gastric fundus strips
Procedure: Male Crl CD BR rats (Charles River, Italy) weighing 150-175 g were housed in a chamber at regulated temperature (22±1° C.) and humidity (55±10%) and with a 12-hour lightness-darkness cycle, for at least 7 days before their use. Feed and water were available ad libitum. The feed was removed 18 hours before sacrificing the animals. The rats were sacrificed by cervical dislocation, and the stomach was removed surgically, opened along the shorter curvature and placed in a Krebs solution (of composition (mM): 118.4 NaCl; 4.7 KCl; 2.5 CaCl2; 3.7 NaH2PO4; 1.2 MgSO4; 25 NaHCO3; 5.6 glucose). The animals were cared for and sacrificed according to the Sanofi-Aventis international code of ethics and the international principles governing the care and treatment of laboratory animals (EEC Directive 86/609, DJL358, 1, 12 Dec. 1987). […] The contractions were recorded by computer with a data recording and analysis system (Power Lab, Chart 5) connected to isotonic transducers (Ugo Basile, Varese, Italy) via preamplifiers (Octal Bridge Amp). […] The pKb values for the antagonists were calculated according to the Cheng-Prusoff equation (Kenakin et al., Competitive Antagonism, Pharmacologic Analysis of Drug-Receptor Interaction, 3rd edition, 331-373, Philadelphia, New York; Raven: Lippincott, 1997).

T1 sequence (O08725 whole entry): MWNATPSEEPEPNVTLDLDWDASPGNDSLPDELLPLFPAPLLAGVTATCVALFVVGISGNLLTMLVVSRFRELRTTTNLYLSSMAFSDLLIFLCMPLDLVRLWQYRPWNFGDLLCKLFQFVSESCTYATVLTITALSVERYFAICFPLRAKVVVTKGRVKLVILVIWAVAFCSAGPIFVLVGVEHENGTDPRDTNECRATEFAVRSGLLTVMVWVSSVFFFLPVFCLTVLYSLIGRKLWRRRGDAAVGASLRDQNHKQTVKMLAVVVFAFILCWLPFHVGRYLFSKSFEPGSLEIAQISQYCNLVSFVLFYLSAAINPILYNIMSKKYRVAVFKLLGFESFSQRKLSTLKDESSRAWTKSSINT

SMILES	melting point [°C]	IC50 (ghrelin receptor) [nM]
CCN1C(C)CN(CC(=O)NC2(c3ccc4occc4c3)C(=O)Nc3cc(Cl)cc(Cl)c32)CC1C (single isomer, unassigned; (+)) [Example 1, (+)-N-[4,6-Dichloro-3-(benzofuran-5-yl)-2-oxo-2,3-dihydro-1H-indol-3-yl]-2-(4-ethyl-3,5-dimethylpiperazin-1-yl)acetamide]	157 to 160	
CCN1CCN(C(C)C(=O)NC2(c3ccc4occc4c3)C(=O)Nc3cc(Cl)cc(Cl)c32)CC1 (single isomer, unassigned; (+)) [Example 2, (+)-N-[4,6-Dichloro-3-(benzofuran-5-yl)-2-oxo-2,3-dihydro-1H-indol-3-yl]-2-(4-ethylpiperazin-1-yl)propionamide]	137 to 138	12
